Reference: PubChem BioAssay (NCI)
Where “and” joins values, the source holds several entries; their conditions need not be identical. Equal values may be shown once.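 Cells were grown in 96-well plates and exposed to each compound for 48 hours at five concentrations; endpoints were interpolated linearly between bracketing concentrations, or set to the highest concentration if not reached. Abbreviation: GI50, concentration required for 50% inhibition of growth. TGI: concentration producing complete growth inhibition.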

Columns and labels:
Experiment in all cases: NCI anticancer screen, dose series, 48 h
786-0 renal = test system: 786-0 renal
A498 renal = test system: A498 renal
A549 NSCLC = test system: A549 NSCLC
ACHN renal = test system: ACHN renal
BT-549 breast = test system: BT-549 breast
CAKI-1 renal = test system: CAKI-1 renal
CCRF-CEM leukemia = test system: CCRF-CEM leukemia
COLO 205 colon = test system: COLO 205 colon
DU-145 prostate = test system: DU-145 prostate
EKVX NSCLC = test system: EKVX NSCLC
HCC-2998 colon = test system: HCC-2998 colon
HCT-116 colon = test system: HCT-116 colon
HCT-15 colon = test system: HCT-15 colon
HL-60(TB) leukemia = test system: HL-60(TB) leukemia
HOP-62 NSCLC = test system: HOP-62 NSCLC
HOP-92 NSCLC = test system: HOP-92 NSCLC
HS 578T breast = test system: HS 578T breast
HT29 colon = test system: HT29 colon
IGROV1 ovarian = test system: IGROV1 ovarian
K-562 leukemia = test system: K-562 leukemia
KM12 colon = test system: KM12 colon
LOX IMVI melanoma = test system: LOX IMVI melanoma
M14 melanoma = test system: M14 melanoma
MALME-3M melanoma = test system: MALME-3M melanoma
MCF7 breast = test system: MCF7 breast
MDA-MB-231 breast = test system: MDA-MB-231 breast
MDA-MB-435 = test system: MDA-MB-435
MOLT-4 leukemia = test system: MOLT-4 leukemia
NCI-H226 lung = test system: NCI-H226 lung
NCI-H23 lung = test system: NCI-H23 lung
NCI-H460 lung = test system: NCI-H460 lung
NCI-H522 lung = test system: NCI-H522 lung
NCI/ADR-RES ovarian = test system: NCI/ADR-RES ovarian
OVCAR-3 ovarian = test system: OVCAR-3 ovarian
OVCAR-4 ovarian = test system: OVCAR-4 ovarian
OVCAR-5 ovarian = test system: OVCAR-5 ovarian
OVCAR-8 ovarian = test system: OVCAR-8 ovarian
PC-3 prostate = test system: PC-3 prostate
RPMI-8226 leukemia = test system: RPMI-8226 leukemia
RXF 393 renal = test system: RXF 393 renal
SF-268 CNS = test system: SF-268 CNS
SF-295 CNS = test system: SF-295 CNS
SF-539 CNS = test system: SF-539 CNS
SK-MEL-2 melanoma = test system: SK-MEL-2 melanoma
SK-MEL-28 melanoma = test system: SK-MEL-28 melanoma
SK-MEL-5 melanoma = test system: SK-MEL-5 melanoma
SK-OV-3 ovarian = test system: SK-OV-3 ovarian
SN12C renal = test system: SN12C renal
SNB-19 CNS = test system: SNB-19 CNS
SNB-75 CNS = test system: SNB-75 CNS
SR leukemia = test system: SR leukemia
SW-620 colon = test system: SW-620 colon
T-47D breast = test system: T-47D breast
TK-10 renal = test system: TK-10 renal
U251 CNS = test system: U251 CNS
UACC-257 melanoma = test system: UACC-257 melanoma
UACC-62 melanoma = test system: UACC-62 melanoma
UO-31 renal = test system: UO-31 renal

In the case of `Cn1cc(-c2cc3c(Nc4ccc(CC(=O)Nc5cc(C(C)(C)C)on5)cc4)ncnc3[nH]2)cn1`, the GI50 (786-0 renal) is reported as 0.995 µM and 0.536 µM, the TGI (786-0 renal) is reported as 5.05 µM and 4.71 µM and the GI50 (A498 renal) is reported as 0.692 µM and 1.07 µM. The TGI (A498 renal) was 1.81 µM and 3.03 µM, the GI50 (A549 NSCLC) was 2.42 µM and 2.84 µM and the TGI (A549 NSCLC) was 8.76 µM and 10.5 µM. The GI50 (ACHN renal) was 1.94 µM and 1.71 µM, the TGI (ACHN renal) was 7.36 µM and 6.4 µM and the GI50 (BT-549 breast) was 0.925 µM and 0.538 µM. The TGI (BT-549 breast) was 4.12 µM and 3.35 µM, the GI50 (CAKI-1 renal) was 1.25 µM and 1.1 µM and the TGI (CAKI-1 renal) was 7.09 µM and 6.93 µM. For the same compound, the GI50 (CCRF-CEM leukemia) was 0.395 µM and 0.302 µM, the GI50 (COLO 205 colon) was 0.364 µM and 0.354 µM and the TGI (COLO 205 colon) was 1.21 µM and 1.65 µM. The GI50 (DU-145 prostate) was 0.83 µM and 0.491 µM, the TGI (DU-145 prostate) was 3.84 µM and 2.89 µM and the GI50 (EKVX NSCLC) was 1.66 µM and 1.81 µM. The TGI (EKVX NSCLC) was 5.01 µM and 5.31 µM, the GI50 (HCC-2998 colon) was 1.34 µM and 0.652 µM and the TGI (HCC-2998 colon) was 7.5 µM and 4.82 µM. The GI50 (HCT-116 colon) was 0.68 µM and 0.337 µM, the TGI (HCT-116 colon) was 4.86 µM and 1.99 µM and the GI50 (HCT-15 colon) was 3.26 µM and 2.91 µM. The TGI (HCT-15 colon) was 13.8 µM and 10.3 µM, the GI50 (HL-60(TB) leukemia) was 1.98 µM and 1.58 µM and the TGI (HL-60(TB) leukemia) was 6.63 µM and 5.47 µM. For the same compound, the GI50 (HOP-62 NSCLC) was 0.876 µM and 0.444 µM, the TGI (HOP-62 NSCLC) was 4.97 µM and 4.58 µM and the GI50 (HOP-92 NSCLC) was 1.42 µM and 0.536 µM. The TGI (HOP-92 NSCLC) was 11.8 µM and 4.39 µM, the GI50 (HS 578T breast) was 0.42 µM and 0.276 µM and the TGI (HS 578T breast) was 1.72 µM and 1.56 µM. The GI50 (HT29 colon) was 1.1 µM and 1.11 µM, the TGI (HT29 colon) was 6.95 µM and 9.63 µM and the GI50 (IGROV1 ovarian) was 1.1 µM and 0.948 µM. For the same compound, the TGI (IGROV1 ovarian) was 5.84 µM and 5.24 µM, the GI50 (K-562 leukemia) was 1.21 µM and 0.596 µM and the TGI (K-562 leukemia) was > 100 µM and 11.2 µM. The GI50 (KM12 colon) was 0.0596 µM and 0.0468 µM, the TGI (KM12 colon) was 2.39 µM and 1.82 µM and the GI50 (LOX IMVI melanoma) was 0.87 µM and 0.548 µM. For the same compound, the TGI (LOX IMVI melanoma) was 6.31 µM and 3.63 µM, the GI50 (M14 melanoma) was 0.961 µM and 0.69 µM and the TGI (M14 melanoma) was 3.02 µM and 2.3 µM. For the same compound, the GI50 (MALME-3M melanoma) was 0.615 µM and 0.354 µM, the TGI (MALME-3M melanoma) was 2.36 µM and 1.75 µM and the GI50 (MCF7 breast) was 0.352 µM and 0.259 µM. The TGI (MCF7 breast) was 10.3 µM and 4.01 µM, the GI50 (MDA-MB-231 breast) was 0.797 µM and 0.786 µM and the TGI (MDA-MB-231 breast) was 5.17 µM and 8.35 µM. For the same compound, the GI50 (MDA-MB-435) was 0.845 µM and 0.944 µM, the TGI (MDA-MB-435) was 2.95 µM and 4.29 µM and the GI50 (MOLT-4 leukemia) was 0.401 µM and 0.324 µM. The TGI (MOLT-4 leukemia) was 11.4 µM and 2.38 µM, the GI50 (NCI-H226 lung) was 0.899 µM and 0.54 µM and the TGI (NCI-H226 lung) was 4.18 µM and 4.1 µM. The GI50 (NCI-H23 lung) was 0.811 µM and 0.449 µM, the TGI (NCI-H23 lung) was 3.49 µM and 2.51 µM and the GI50 (NCI-H460 lung) was 1.04 µM and 1.26 µM. The TGI (NCI-H460 lung) was 3.65 µM and 6.22 µM, the GI50 (NCI-H522 lung) was 0.469 µM and 0.528 µM and the TGI (NCI-H522 lung) was 3.33 µM and 4.48 µM. The GI50 (NCI/ADR-RES ovarian) was 16.1 µM and 13.1 µM, the TGI (NCI/ADR-RES ovarian) was greater than 100 µM and the GI50 (OVCAR-3 ovarian) was 0.496 µM and 0.36 µM. For the same compound, the TGI (OVCAR-3 ovarian) was 2.48 µM and 2.54 µM, the GI50 (OVCAR-4 ovarian) was 0.592 µM and 0.547 µM and the TGI (OVCAR-4 ovarian) was 4 µM and 5.17 µM. The GI50 (OVCAR-5 ovarian) was 1.3 µM and 1.08 µM, the TGI (OVCAR-5 ovarian) was 7.18 µM and 6.62 µM and the GI50 (OVCAR-8 ovarian) was 0.893 µM and 0.49 µM. The TGI (OVCAR-8 ovarian) was 5.06 µM and 4.54 µM, the GI50 (PC-3 prostate) was 1.59 µM and 0.612 µM and the TGI (PC-3 prostate) was 11.3 µM and 3.58 µM. The GI50 (RPMI-8226 leukemia) was 2.03 µM and 1.07 µM, the TGI (RPMI-8226 leukemia) was 5.41 µM and 3.8 µM and the GI50 (RXF 393 renal) was 0.723 µM and 0.461 µM. For the same compound, the TGI (RXF 393 renal) was 1.88 µM and 1.48 µM, the GI50 (SF-268 CNS) was 0.444 µM and 0.348 µM and the TGI (SF-268 CNS) was 1.67 µM and 1.18 µM. The GI50 (SF-295 CNS) was 1.64 µM and 1.32 µM, the TGI (SF-295 CNS) was 6.21 µM and 6.2 µM and the GI50 (SF-539 CNS) was 0.425 µM and 0.265 µM. The TGI (SF-539 CNS) was 1.7 µM and 1.63 µM, the GI50 (SK-MEL-2 melanoma) was 0.835 µM and 0.943 µM and the TGI (SK-MEL-2 melanoma) was 2.8 µM and 3.73 µM. For the same compound, the GI50 (SK-MEL-28 melanoma) was 0.804 µM and 0.508 µM, the TGI (SK-MEL-28 melanoma) was 3.58 µM and 3 µM and the GI50 (SK-MEL-5 melanoma) was 1.4 µM and 1.31 µM. The TGI (SK-MEL-5 melanoma) was 4.77 µM and 4.43 µM, the GI50 (SK-OV-3 ovarian) was 1.43 µM and 2.02 µM and the TGI (SK-OV-3 ovarian) was 6.01 µM and 6.84 µM. For the same compound, the GI50 (SN12C renal) was 0.671 µM and 0.471 µM, the TGI (SN12C renal) was 4.05 µM and 4.15 µM and the GI50 (SNB-19 CNS) was 0.492 µM and 0.399 µM. For the same compound, the TGI (SNB-19 CNS) was 5.31 µM and 8.4 µM, the GI50 (SNB-75 CNS) was 0.655 µM and 0.133 µM and the TGI (SNB-75 CNS) was 1.78 µM and 2.47 µM. For the same compound, the GI50 (SR leukemia) was 0.328 µM and 0.324 µM, the TGI (SR leukemia) was greater than 53.7 µM and the GI50 (SW-620 colon) was 0.871 µM and 0.654 µM. For the same compound, the TGI (SW-620 colon) was 2.75 µM and 5.73 µM, the GI50 (T-47D breast) was 0.315 µM and 0.289 µM and the TGI (T-47D breast) was 6.12 µM and 2.19 µM. For the same compound, the GI50 (TK-10 renal) was 2.74 µM and 2.44 µM, the TGI (TK-10 renal) was 8.91 µM and 7.4 µM and the GI50 (U251 CNS) was 0.586 µM and 0.38 µM. For the same compound, the TGI (U251 CNS) was 5.84 µM and 6.41 µM, the GI50 (UACC-257 melanoma) was 2.04 µM and the TGI (UACC-257 melanoma) was 6.96 µM and 6.99 µM. The GI50 (UACC-62 melanoma) was 0.583 µM and 0.455 µM, the TGI (UACC-62 melanoma) was 1.71 µM and 1.9 µM and the GI50 (UO-31 renal) was 2.43 µM and 2.33 µM. The TGI (UO-31 renal) was 7.04 µM and 6.58 µM.
